Results taken from US7563903B2, “Acylaminothiazole derivatives, their preparation and their therapeutic use” (Sanofi-Aventis, priority 2003, dated 2009).

Molecular target: T1, gamma-secretase (Homo sapiens, UniProt P49768, M146L)
T1 construct: expressed in transfected cells; host or cells: CHO-K1 (clone 30-12)
Assay: β-amyloid cellular trial: inhibition of β-amyloid peptide (β-A4) production, ELISA
Assay type: cell-based
Conditions: CHO-K1 line coexpressing the CT100 of APP and PSI M146L clone 30-12, 24-25 h incubation, ELISA of supernatants, read-out: EC50 (50% effective concentration)
From the text: For the β-amyloid cellular trial, the CHO-K1 line coexpressing the CT100 of APP and PSI M146L clone 30-12 is used. The line targets the inhibition of gamma-secretase. Presenilin is linked to the gamma-secretase activity (Wolfe M S, Haass C., The Role of presenilins in gamma-secretase activity, J. Biol. Chem., Feb. 23, 2001 276(8), 5413-6) and its coexpression with the amyloid protein or its N-terminal fragment causes an increase in the secretion of the A1-42 peptide (β-A4) thus generating a pharmacological tool which makes it possible to evaluate inhibition by the compounds of formula (I) of the production of the β-A4 peptide. The inoculation of the 96-well culture plates is carried out at the rate of 1×10^5 cells per well in 150 μl of incubation medium. […]
The quantity of bound peptide is detected in an indirect manner in the presence of a competitor corresponding to the truncated peptide, peptide 1-28 coupled to biotin which is then detected with streptavidin coupled to alkaline phosphatase. The substrate, p-Nitrophenyl Phosphate (pNPP FAST p-Nitrophenyl Phosphate, Sigma N2770), gives a yellow soluble reaction product which can be read at 405 nm. […] After incubating for 30 minutes at room temperature, the reaction is stopped by the addition of 100 μl per well of 0.1M EDTA and the reading is carried out at 405 nm.

EC50: 295 nM
Structure (SMILES): CCC[C@H](NC(=O)[C@@H](O)C(C)(C)C)C(=O)Nc1ncc(-c2ccccc2COc2ccc(Cl)c(Cl)c2)s1 [compound 50, (2S)—N-(5-{2-[(3,4-dichlorophenoxy)methyl]phenyl}-1,3-thiazol-2-yl)-2-{[(2S)-2-hydroxy-3,3-dimethylbutanoyl]amino}pentanamide]
